From patent US5902736A, “Process for the production of D-α-amino acids by hydrolysis of the corresponding N-carbamyl derivative” (priority 1992, dated 1999)

Key:
Type in all cases: cell-based
[1] = test system: decarbamylase of Blastobacter sp. A 17 p-4; experiment: Substrate specificity of decarbamylase, cells of Blastobacter sp. A 17 p-4; conditions: 1% (w/v) substrate, 200 mM potassium phosphate, cell suspension, 24 hours at 30° C.
Method: For the determination of substrate specificity of decarbamylase of Comamonas sp. E 222 C and Blastobacter sp. A 17 p-4, these strains were cultured at 28° C. in the medium C (as described in Example 2) for 1 day (E 222 C) and 7 days (A 17 p-4). […] (E 222 C) or 50° C. (A 17 p-4).

[2] = test system: decarbamylase of Comamonas sp. E 222 C; experiment: Substrate specificity of decarbamylase, cells of Comamonas sp. E 222 C; conditions: cell suspension, 24 hours at 30° C.; for Substrate conversion, Comamonas sp. E 222 c (conversion to amino acids): 1% (w/v) substrate, 200 mM potassium phosphate
Method: For the determination of substrate specificity of decarbamylase of Comamonas sp. E 222 C and Blastobacter sp. A 17 p-4, these strains were cultured at 28° C. in the medium C (as described in Example 2) for 1 day (E 222 C) and 7 days (A 17 p-4). Three ml of the culture medium was centrifuged to separate the microorganism, which was suspended in 300 μl of a substrate solution (200 mM potassium phosphate, 1% (w/v) a substrate as listed below) and incubated for 24 hours at 30° C. (E 222 C) or 50° C. (A 17 p-4).

[3] = test system: Comamonas sp. E 222 C; experiment: Promoters for the production of Comamonas sp. E 222 C decarbamylase; conditions: 0.15% (w/v) additive in medium D, 2 days at 28° C.; D-HPG from 35 mM C-D-HPG, 24 hours at 30° C.
Method: The strain was cultured in a nutrient medium D (1 g/l KH2 PO4, 1 g/l K2 HPO4, 0.3 g/l MgSO4 ·7H2 O, 3 g/l yeast extract, 3 g/l meat extract, 10 g/l glycerol, 2 g/l polypeptone; pH 7.0) for 2 days at 28° C. The culture medium additionally contained a substance as listed in FIG. 2 in a concentration of 0.15% (w/v).
One ml of the culture medium was centrifuged to collect the microorganism, which was suspended in 100 μl of a substrate solution (35 mM C-D-HPG, 200 mM potassium phosphate; pH 7.0). After 24 hours at 30° C., D-HPG was quantitated by HPLC according to the procedure described in Example 2.

[4] = test system: Blastobacter sp. A 17 p-4; experiment: Promoters for the production of Blastobacter sp. A 17 p-4 decarbamylase; conditions: for decarbamylase yield of Blastobacter sp. A 17 p-4, effect of metal ions: 2 mM metal ion plus 0.15% (w/v) uracil in medium D, 4 days at 28° C.; for decarbamylase yield of Blastobacter sp. A 17 p-4: 0.15% (w/v) additive in medium D, 3 days at 28° C., D-HPG formation at 40° C.
Method: The strain was cultured at 28° C. for 3 days in the medium D (as defined in Example 4) additionally containing 0.15% (w/v) of a substance as listed in FIG. 7. Then, D-HPG was formed in the same way as in Example 4 but that the reaction temperature was 40° C., and quantitated by HPLC.
In order to examine the effects of metal ions on the enzyme productivity, the strain was cultured at 28° C. for 4 days in the medium D additionally containing 0.15% (w/v) of uracil and 2 mM a metal ion as listed in FIG. 8. It was found by quantitating D-HPG that ions such as Fe^2+, Fe^3+, Li^+, Cs^+, Be^2+, Mg^2+, Mn^2+, Co^2+ and Al^3+ increased the decarbamylase yield.

CC1NC(=O)NC1=O (racemic) [DL-5-Methylhydantoin]
Substrate conversion, Blastobacter sp. A 17 p-4 (conversion to amino acids) [1]: ++ (++: <50%)
Substrate conversion, Comamonas sp. E 222 c (conversion to amino acids) [2]: - (-: 0%)

O=C1NC(=O)C(c2ccccc2)N1 (racemic) [DL-5-Phenylhydantoin]
Substrate conversion, Blastobacter sp. A 17 p-4 (conversion to amino acids) [1]: ++ (++: <50%)
Substrate conversion, Comamonas sp. E 222 c (conversion to amino acids) [2]: - (-: 0%)

O=C1NC(=O)C(c2ccc(O)cc2)N1 (racemic) [DL-5-p-Hydroxyphenylhydantoin]
Substrate conversion, Blastobacter sp. A 17 p-4 (conversion to amino acids) [1]: ++ (++: <50%)
Substrate conversion, Comamonas sp. E 222 c (conversion to amino acids) [2]: - (-: 0%)

CSCCC(NC(N)=O)C(=O)O (racemic) [N-Carbamyl-DL-methionine, N-carbamyl-DL-methionine]
Substrate conversion, Blastobacter sp. A 17 p-4 (conversion to amino acids) [1]: ++ (++: <50%)
Substrate conversion, Comamonas sp. E 222 c (conversion to amino acids) [2]: ++ (++: <50%)
decarbamylase productivity of Comamonas sp. E 222 C [3]: improved

CCCCC(NC(N)=O)C(=O)O (racemic) [N-Carbamyl-DL-norleucine]
Substrate conversion, Blastobacter sp. A 17 p-4 (conversion to amino acids) [1]: ++ (++: <50%)
Substrate conversion, Comamonas sp. E 222 c (conversion to amino acids) [2]: ++ (++: <50%)

CCCC(NC(N)=O)C(=O)O (racemic) [N-Carbamyl-DL-norvaline]
Substrate conversion, Blastobacter sp. A 17 p-4 (conversion to amino acids) [1]: ++ (++: <50%)
Substrate conversion, Comamonas sp. E 222 c (conversion to amino acids) [2]: ++ (++: <50%)

C[C@@H](O)[C@H](NC(N)=O)C(=O)O (racemic) [N-Carbamyl-DL-threonine]
Substrate conversion, Blastobacter sp. A 17 p-4 (conversion to amino acids) [1]: - (-: 0%)
Substrate conversion, Comamonas sp. E 222 c (conversion to amino acids) [2]: + (+: <10%)

[Al+3] [Al^3+]
decarbamylase yield of Blastobacter sp. A 17 p-4, effect of metal ions [4]: increased

[Be+2] [Be^2+]
decarbamylase yield of Blastobacter sp. A 17 p-4, effect of metal ions [4]: increased

[Co+2] [Co^2+]
decarbamylase yield of Blastobacter sp. A 17 p-4, effect of metal ions [4]: increased

[Cs+] [Cs^+]
decarbamylase yield of Blastobacter sp. A 17 p-4, effect of metal ions [4]: increased

N[C@@H](C(=O)O)c1ccccc1 [D-phenylglycine]
decarbamylase productivity of Comamonas sp. E 222 C [3]: improved

[Fe+2] [Fe^2+]
decarbamylase yield of Blastobacter sp. A 17 p-4, effect of metal ions [4]: increased

[Li+] [Li^+]
decarbamylase yield of Blastobacter sp. A 17 p-4, effect of metal ions [4]: increased

[Mg+2] [Mg^2+]
decarbamylase yield of Blastobacter sp. A 17 p-4, effect of metal ions [4]: increased

[Mn+2] [Mn^2+]
decarbamylase yield of Blastobacter sp. A 17 p-4, effect of metal ions [4]: increased

C[C@@H](NC(N)=O)C(=O)O [N-Carbamyl-D-alanine]
Substrate conversion, Blastobacter sp. A 17 p-4 (conversion to amino acids) [1]: +++ (+++: <80%)
Substrate conversion, Comamonas sp. E 222 c (conversion to amino acids) [2]: ++++ (++++: 100%)

CC(C)C[C@@H](NC(N)=O)C(=O)O [N-Carbamyl-D-leucine]
Substrate conversion, Blastobacter sp. A 17 p-4 (conversion to amino acids) [1]: +++ (+++: <80%)
Substrate conversion, Comamonas sp. E 222 c (conversion to amino acids) [2]: ++++ (++++: 100%)

NC(=O)N[C@@H](C(=O)O)c1ccc(O)cc1 [N-Carbamyl-D-p-hydroxyphenylglycine]
Substrate conversion, Blastobacter sp. A 17 p-4 (conversion to amino acids) [1]: ++ (++: <50%)
Substrate conversion, Comamonas sp. E 222 c (conversion to amino acids) [2]: +++ (+++: <80%)

NC(=O)N[C@H](Cc1ccccc1)C(=O)O [N-Carbamyl-D-phenylalanine, N-carbamyl-D-phenylalanine]
Substrate conversion, Blastobacter sp. A 17 p-4 (conversion to amino acids) [1]: +++ (+++: <80%)
Substrate conversion, Comamonas sp. E 222 c (conversion to amino acids) [2]: ++++ (++++: 100%)

NC(=O)N[C@@H](C(=O)O)c1ccccc1 [N-Carbamyl-D-phenylglycine]
Substrate conversion, Blastobacter sp. A 17 p-4 (conversion to amino acids) [1]: +++ (+++: <80%)
Substrate conversion, Comamonas sp. E 222 c (conversion to amino acids) [2]: +++ (+++: <80%)

NC(=O)N[C@H](CO)C(=O)O [N-Carbamyl-D-serine]
Substrate conversion, Blastobacter sp. A 17 p-4 (conversion to amino acids) [1]: - (-: 0%)
Substrate conversion, Comamonas sp. E 222 c (conversion to amino acids) [2]: + (+: <10%)

CC(C)[C@@H](NC(N)=O)C(=O)O [N-Carbamyl-D-valine]
Substrate conversion, Blastobacter sp. A 17 p-4 (conversion to amino acids) [1]: +++ (+++: <80%)
Substrate conversion, Comamonas sp. E 222 c (conversion to amino acids) [2]: ++++ (++++: 100%)

CN(CC(=O)O)C(N)=O [N-Carbamyl-sarcosine]
Substrate conversion, Blastobacter sp. A 17 p-4 (conversion to amino acids) [1]: - (-: 0%)
Substrate conversion, Comamonas sp. E 222 c (conversion to amino acids) [2]: - (-: 0%)

NC(=O)NC(CC(=O)O)C(=O)O (centres unmarked) [Ureidosuccinic acid]
Substrate conversion, Blastobacter sp. A 17 p-4 (conversion to amino acids) [1]: - (-: 0%)
Substrate conversion, Comamonas sp. E 222 c (conversion to amino acids) [2]: - (-: 0%)

O=C1CCNC(=O)N1 [dihydrouracil]
decarbamylase yield of Blastobacter sp. A 17 p-4 [4]: increased

O=c1cc[nH]c(=O)[nH]1 [uracil]
decarbamylase yield of Blastobacter sp. A 17 p-4 [4]: increased

NC(N)=O [urea]
decarbamylase productivity of Comamonas sp. E 222 C [3]: improved

NC(=O)NCCC(=O)O [β-Ureidopropionic acid]
decarbamylase yield of Blastobacter sp. A 17 p-4 [4]: increased
Substrate conversion, Blastobacter sp. A 17 p-4 (conversion to amino acids) [1]: - (-: 0%)
Substrate conversion, Comamonas sp. E 222 c (conversion to amino acids) [2]: ++++ (++++: 100%)
hydrolysis by Comamonas sp. E 222 C, in words [2]: could hydrolize
decarbamylase productivity of Comamonas sp. E 222 C [3]: improved
